Results on 1 compound are retold here after patent publication US12440495B2, “Combination therapy for treatment of myeloproliferative neoplasms” (Incyte Corporation, priority 2020, dated 2025).

One data set relates to HEL cells. The data set can be described thus: JAK2 V617F expressing HEL xenograft model of erythroleukemia. Particulars: 14 days. In kind it is in vivo. On the procedure:
For efficacy studies, measurements of tumors were taken every 2 to 3 days using a digital caliper. Tumor volumes were calculated using the formula: Volume=(length×width2)/2 where width was the smaller dimension. Body weights were also monitored.
Animals were sacrificed (1) at end of study, (2) if tumor size reached 10% of total body weight, or (3) if 20% of body weight is lost.
Statistical analyses were performed using Prism Graphpad software. All comparisons were done using 2-way ANOVA with p<0.05 deemed significant.
Female SCID mice were subcutaneously inoculated with 10^7 HEL cells in matrigel. When tumors reached approximately 160 mm^3, mice (n=10 per group) were dosed orally with Compound 1 for 14 days as follows: • 1. BID at either 1 or 3 mg/kg, or vehicle control • 2. QD at 3, 10, or 30 mg/kg

Data set [1] relates to MPLW515L expressing bone marrow. The data set can be described thus: MPLW515L mouse model of MPN. Particulars: Compound 1 10 mg/kg QD.
Setting [2] is: ruxolitinib 60 mg/kg BID, or both, oral, 14 days.
The mark [3] stands for this setting: ruxolitinib 60 mg/kg BID, combination.

For the compound `CN1C(=O)C(C)(C)Oc2c(-c3cn(C)c(=O)c4[nH]ccc34)cc(S(C)(=O)=O)cc21` [Compound 1, 2,2,4-trimethyl-8-(6-methyl-7-oxo-6,7-dihydro-1H-pyrrolo[2,3-c]pyridin-4-yl)-6-(methylsulfonyl)-2H-1,4-benzoxazin-3(4H)-one], the tumor regression entry in the data set with HEL cells (30 mg/kg QD oral) is “one statistical tumor regression”. Also, the “tolerability (body weight loss)” value in the data set with HEL cells (all doses, oral) is listed as “All doses were tolerated”. Besides, in the data set on HEL cells (oral, 1 or 3 mg/kg BID, 3, 10 or 30 mg/kg QD, p<0.02 each group), the “tumor growth (mean tumor volume) vs vehicle” value is given as “inhibited tumor growth in a dose-related manner”. In addition, in data set [1] (setting [2]), the spleen size entry was “able to reduce spleen size” and the “white blood cell count” value was “able to slow the expansion of white blood cells”. For the same compound, in data set [1] (setting [3]), the “Fa (fraction affected, change vs vehicle), MPL SPL” value came out at 0.5558 and the “MPL SPL (sizes of the spleens)” value is given as 0.3611 grams.
